# Experimental data reported in PubChem BioAssay AID248 (DTP/NCI, 2004).
# Toxic doses and inconclusive results are not listed.
# Test system: L1210 leukemia ip in BDF1 mice, survival T/C
# Assay: NCI In Vivo Anticancer Drug Screen. Data for tumor model L1210 Leukemia (intraperitoneal) in B6D2F1 (BDF1) mice
# Details: endpoint: mean survival time, higher = longer survival
# In short: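 Each compound was tested against a transplantable tumor grown in mice. The endpoint was survival, with treated animals benchmarked against vehicle controls as a simple ratio.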
# [1] = dose: 100.0 mg/kg/injection, schedule: Q01DX009 (ip), vehicle: saline with Tween-80
# [2] = dose: 200.0 mg/kg/injection, schedule: Q01DX009 (ip), vehicle: saline with Tween-80
# [3] = dose: 400.0 mg/kg/injection, schedule: Q01DX009 (ip), vehicle: saline with Tween-80
# [4] = dose: 100.0 mg/kg/injection, schedule: Q01DX001 (ip), vehicle: saline
# [5] = dose: 200.0 mg/kg/injection, schedule: Q01DX001 (ip), vehicle: saline
# [6] = dose: 100.0 mg/kg/injection, schedule: Q04DX003 (ip), vehicle: saline with Tween-80
# [7] = dose: 200.0 mg/kg/injection, schedule: Q04DX003 (ip), vehicle: saline with Tween-80
# [8] = dose: 400.0 mg/kg/injection, schedule: Q04DX003 (ip), vehicle: saline with Tween-80
# [9] = dose: 100.0 mg/kg/injection, schedule: Q04DX003 (ip), vehicle: Klucel (hydroxypropylcellulose) (HPC)
# [10] = dose: 200.0 mg/kg/injection, schedule: Q04DX003 (ip), vehicle: Klucel (hydroxypropylcellulose) (HPC)
# [11] = dose: 100.0 mg/kg/injection, schedule: Q01DX001 (ip), vehicle: saline with Tween-80
# [12] = dose: 200.0 mg/kg/injection, schedule: Q01DX001 (ip), vehicle: saline with Tween-80
# [13] = dose: 400.0 mg/kg/injection, schedule: Q01DX001 (ip), vehicle: saline with Tween-80
# [14] = dose: 100.0 mg/kg/injection, schedule: Q01DX009 (ip), vehicle: saline
# [15] = dose: 100.0 mg/kg/injection, schedule: Q04DX003 (ip), vehicle: saline
# [16] = dose: 200.0 mg/kg/injection, schedule: Q01DX009 (ip), vehicle: saline
# [17] = dose: 200.0 mg/kg/injection, schedule: Q04DX003 (ip), vehicle: saline
# [18] = dose: 400.0 mg/kg/injection, schedule: Q04DX003 (ip), vehicle: saline
# [19] = dose: 25.0 mg/kg/injection, schedule: Q04DX003 (ip), vehicle: Klucel (hydroxypropylcellulose) (HPC)
# [20] = dose: 50.0 mg/kg/injection, schedule: Q04DX003 (ip), vehicle: Klucel (hydroxypropylcellulose) (HPC)
# [21] = dose: 100.0 mg/kg/injection, schedule: Q04DX002 (ip), vehicle: Klucel (hydroxypropylcellulose) (HPC)
# [22] = dose: 200.0 mg/kg/injection, schedule: Q04DX002 (ip), vehicle: Klucel (hydroxypropylcellulose) (HPC)
# [23] = dose: 400.0 mg/kg/injection, schedule: Q04DX002 (ip), vehicle: Klucel (hydroxypropylcellulose) (HPC)
# [24] = dose: 25.0 mg/kg/injection, schedule: Q01DX009 (ip), vehicle: saline with Tween-80
# [25] = dose: 25.0 mg/kg/injection, schedule: Q04DX003 (ip), vehicle: saline with Tween-80
# [26] = dose: 50.0 mg/kg/injection, schedule: Q01DX009 (ip), vehicle: saline with Tween-80
# [27] = dose: 50.0 mg/kg/injection, schedule: Q04DX003 (ip), vehicle: saline with Tween-80
# [28] = dose: 6.25 mg/kg/injection, schedule: Q01DX009 (ip), vehicle: saline
# [29] = dose: 12.5 mg/kg/injection, schedule: Q01DX009 (ip), vehicle: saline
# [30] = dose: 25.0 mg/kg/injection, schedule: Q01DX009 (ip), vehicle: saline
compound,measurement,setting,value
Nc1ccc(CCCC(=O)NCc2cccnc2)cc1,T/C,[1],105 % of control
same,T/C,[2],94 % of control
same,T/C,[3],96 % of control
COc1ccccc1CC(=O)Oc1ccccc1,T/C,[4],97 % of control
same,T/C,[5],96 % of control
same,T/C,"dose: 400.0 mg/kg/injection, schedule: Q01DX001 (ip), vehicle: saline",102 % of control
c1ccc2c(c1)cc1ccc3cccc4ncc2c1c34,T/C,[6],86 % of control
same,T/C,[7],96 % of control
same,T/C,[8],88 % of control
CC(C)N(C=O)c1ccc(C(=O)O)cc1,T/C,"dose: 100.0 mg/kg/injection, schedule: Q01DX001 (ip), vehicle: Klucel (hydroxypropylcellulose) (HPC)",93 % of control
same,T/C,[9],108 % of control
same,T/C,"dose: 200.0 mg/kg/injection, schedule: Q01DX001 (ip), vehicle: Klucel (hydroxypropylcellulose) (HPC)",93 % of control
same,T/C,[10],97 % of control
same,T/C,"dose: 400.0 mg/kg/injection, schedule: Q01DX001 (ip), vehicle: Klucel (hydroxypropylcellulose) (HPC)",86 % of control
same,T/C,"dose: 400.0 mg/kg/injection, schedule: Q04DX003 (ip), vehicle: Klucel (hydroxypropylcellulose) (HPC)",89 % of control
CC(C)=CCC/C(C)=C/CN1C(=O)CCCC1=O,T/C,[11],104 % of control
same,T/C,"dose: 150.0 mg/kg/injection, schedule: Q04DX003 (ip), vehicle: saline with Tween-80",94 % of control
same,T/C,[12],97 % of control
same,T/C,"dose: 300.0 mg/kg/injection, schedule: Q04DX003 (ip), vehicle: saline with Tween-80",94 % of control
same,T/C,[13],93 % of control
same,T/C,"dose: 600.0 mg/kg/injection, schedule: Q04DX003 (ip), vehicle: saline with Tween-80",90 % of control
CCOC(=O)NC(=O)CC,T/C,[14],100 % of control
same,T/C,[15],98 % of control
same,T/C,[16],110 % of control
same,T/C,[17],98 % of control
same,T/C,"dose: 400.0 mg/kg/injection, schedule: Q01DX009 (ip), vehicle: saline",110 % of control
same,T/C,[18],98 % of control
NC(=O)C(=O)NCCCN1CC1,T/C,"dose: 12.5 mg/kg/injection, schedule: Q04DX003 (ip), vehicle: Klucel (hydroxypropylcellulose) (HPC)",102 % of control
same,T/C,[19],98 % of control
same,T/C,[20],106 % of control
same,T/C,[9],118 % of control
N#CCCN(Cc1ccccc1)C(=S)Nc1ccc(C(F)(F)F)cc1,T/C,[21],100 % of control
same,T/C,[22],100 % of control
same,T/C,[23],100 % of control
Cc1ccc(N=C=Nc2ccc(C)cc2)cc1,T/C,[19],105 % of control
same,T/C,[20],97 % of control
same,T/C,[9],90 % of control
CC(=O)Nc1ccc(/C=C/c2ccc3ccccc3[n+]2C)cc1,T/C,[24],97 % of control
same,T/C,[25],101 % of control
same,T/C,[26],106 % of control
same,T/C,[27],98 % of control
same,T/C,[6],94 % of control
CCCCCCCCN(C)Cc1cc(C(C)(C)C)cc(-c2ccccc2)c1O,T/C,[11],94 % of control
same,T/C,[12],90 % of control
same,T/C,[13],92 % of control
CC(C)OCCS(=O)(=O)Oc1ncc(Cl)cc1Cl,T/C,"dose: 12.5 mg/kg/injection, schedule: Q01DX009 (ip), vehicle: saline with Tween-80",113 % of control
same,T/C,[24],94 % of control
same,T/C,[26],96 % of control
same,T/C,[6],94 % of control
same,T/C,[7],96 % of control
same,T/C,[3],90 % of control
same,T/C,[8],94 % of control
CC(=O)Nc1ccc2c(c1)Cc1cc(N=Cc3ccccn3)ccc1-2,T/C,[20],87 % of control
same,T/C,[9],90 % of control
OC1C2COc3nc4ccccc4n3C(O2)C1O (centres undefined),T/C,[4],97 % of control
same,T/C,[5],95 % of control
O=C(CS(=O)(=O)C/C(=N\Nc1ccc([N+](=O)[O-])cc1)c1ccccc1)c1ccccc1,T/C,[15],101 % of control
same,T/C,[17],113 % of control
same,T/C,[18],104 % of control
O=[N+]([O-])c1ccc(/C=C2\c3ccccc3-c3nc4ccccc4nc32)cc1,T/C,"dose: 75.0 mg/kg/injection, schedule: Q01DX001 (ip), vehicle: saline",92 % of control
same,T/C,"dose: 300.0 mg/kg/injection, schedule: Q01DX001 (ip), vehicle: saline",91 % of control
Nc1cc([N+](=O)[O-])cnc1NCCc1ccccc1,T/C,[6],97 % of control
same,T/C,[7],98 % of control
same,T/C,[8],104 % of control
C=CC[n+]1c(C)ccc2ccccc21,T/C,[24],100 % of control
same,T/C,[26],115 % of control
same,T/C,[11],114 % of control
CCSC(=O)N1c2ccc(C)cc2C=CC1C#N (centres undefined),T/C,[1],93 % of control
same,T/C,[6],90 % of control
same,T/C,[2],104 % of control
same,T/C,[7],89 % of control
same,T/C,[8],95 % of control
NC(=O)c1ccc([N+](=O)[O-])s1,T/C,[25],98 % of control
same,T/C,[27],104 % of control
same,T/C,[9],100 % of control
same,T/C,[6],96 % of control
COC1C(/C=C/C(C)=O)OC2OC(C)(C)OC21 (centres undefined),T/C,[28],105 % of control
same,T/C,[29],105 % of control
same,T/C,[30],107 % of control
same,T/C,"dose: 50.0 mg/kg/injection, schedule: Q01DX009 (ip), vehicle: saline",98 % of control
same,T/C,[14],100 % of control
same,T/C,[16],98 % of control
C=CCOC(=O)Oc1ccccc1Cl,T/C,"dose: 100.0 mg/kg/injection, schedule: Q01DX009 (ip), vehicle: Klucel (hydroxypropylcellulose) (HPC)",92 % of control
same,T/C,[9],95 % of control
same,T/C,"dose: 200.0 mg/kg/injection, schedule: Q01DX009 (ip), vehicle: Klucel (hydroxypropylcellulose) (HPC)",89 % of control
same,T/C,[10],97 % of control
CC(C)=CCC(/C=N/N=C(N)N)C(C)C (centres undefined),T/C,"dose: 3.0 mg/kg/injection, schedule: Q01DX Z (ip), vehicle: saline",96 % of control
same,T/C,"dose: 7.0 mg/kg/injection, schedule: Q01DX Z (ip), vehicle: saline",105 % of control
same,T/C,"dose: 15.0 mg/kg/injection, schedule: Q01DX Z (ip), vehicle: saline",91 % of control
same,T/C,"dose: 15.0 mg/kg/injection, schedule: Q01DX Z (oral), vehicle: saline",104 % of control
same,T/C,"dose: 30.0 mg/kg/injection, schedule: Q01DX Z (ip), vehicle: saline",94 % of control
same,T/C,"dose: 30.0 mg/kg/injection, schedule: Q01DX Z (oral), vehicle: saline",101 % of control
same,T/C,"dose: 60.0 mg/kg/injection, schedule: Q01DX Z (oral), vehicle: saline",87 % of control
Cc1ccc(NC(=O)OCCSc2ccc(Cl)cc2)c([N+](=O)[O-])c1,T/C,[21],99 % of control
same,T/C,[22],99 % of control
same,T/C,[23],89 % of control
C1OC1C1CO1 (centres undefined),T/C,[28],92 % of control
same,T/C,"dose: 10.0 mg/kg/injection, schedule: Q01DX001 (ip), vehicle: saline",106 % of control
same,T/C,[29],104 % of control
same,T/C,"dose: 12.5 mg/kg/injection, schedule: Q04DX003 (ip), vehicle: saline",110 % of control
same,T/C,"dose: 20.0 mg/kg/injection, schedule: Q01DX001 (ip), vehicle: saline",103 % of control
same,T/C,[30],114 % of control
same,T/C,"dose: 25.0 mg/kg/injection, schedule: Q04DX003 (ip), vehicle: saline",119 % of control
same,T/C,"dose: 40.0 mg/kg/injection, schedule: Q01DX001 (ip), vehicle: saline",114 % of control
same,T/C,"dose: 44.0 mg/kg/injection, schedule: Q01DX001 (ip), vehicle: saline",105 % of control
same,T/C,"dose: 50.0 mg/kg/injection, schedule: Q04DX003 (ip), vehicle: saline",105 % of control
NC(N)=NC(N)=Nc1ccc(S(=O)(=O)c2ccc(N=C(N)N=C(N)N)cc2)cc1,T/C,[1],95 % of control
same,T/C,[2],95 % of control
CN(C)N=Nc1nn(C2CCCO2)cc1C(N)=O (centres undefined),T/C,"dose: 100.0 mg/kg/injection, schedule: Q01DX005 (ip), vehicle: saline",150 % of control
